For orientation: IC50 means the concentration that gives 50% inhibition.

Where a name gives a salt, the structure may show the parent alone. Read-outs that look alike come from different tables or passages of the source. Bounds are passed on as bounds.

Test [1] relates to Phosphorylated Ribosomal Protein S6 (RPS6). Nature of the test: THP-1 RPS6 ELISA Assay. It is filed as cell-based, Human. Conditions: THP-1 cells, read-out: PI3Kγ_THP1_RPS6_ELISA IC50. The procedure, abridged:
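IC50 values come from a curve of percent inhibition against log compound concentration, using phospho-RPS6 ELISA (450 nm) on THP-1 lysates. Cells were serum-starved overnight, exposed to compound for 2 h at 37 °C, then challenged 15 min with 10 nM MCP-1.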
In general terms: In an ELISA, binding on a coated surface is turned into a signal by an enzyme label.

Test [2] concerns the target PI3Kγ (p110γ) Recombinant Human Protein (Homo sapiens (Human), UniProt P48736). Kind of test: PI3K-γ Scintillation Proximity Assay. The format is biochemical. To be noted: read-out: PI3Kγ IC50. The procedure, abridged:
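Radiometric SPA readout: […] bound to WGA beads after overnight shaking, IC50 derived from % activity of DMSO control. Reaction used human p110γ, 2 μM ATP, 20 μM PIP2, pH 6.7 MOPS buffer with MgCl2, DTT, CHAPS, 2% DMSO, room temperature.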

Test [3] concerns the target PI3Kδ (p110δ/p85α) Recombinant Human Protein (Homo sapiens (Human), UniProt O00329). Kind of test: PI3Kδ Scintillation Proximity Assay. The format is biochemical. The procedure, abridged: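 Radiometric read-out: 33P-labelled PIP3 product captured on WGA SPA beads and counted, with IC50 fitted from percent activity relative to DMSO control. Enzyme (3.4 nM) was incubated 120 min at room temperature with 20 μM PIP2 and 2 μM ATP at pH 6.7, 2% DMSO.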
A general note: Scintillation proximity formats need no separation of bound from free tracer.

Sequence of PI3Kγ (p110γ) Recombinant Human Protein (P48736 whole entry): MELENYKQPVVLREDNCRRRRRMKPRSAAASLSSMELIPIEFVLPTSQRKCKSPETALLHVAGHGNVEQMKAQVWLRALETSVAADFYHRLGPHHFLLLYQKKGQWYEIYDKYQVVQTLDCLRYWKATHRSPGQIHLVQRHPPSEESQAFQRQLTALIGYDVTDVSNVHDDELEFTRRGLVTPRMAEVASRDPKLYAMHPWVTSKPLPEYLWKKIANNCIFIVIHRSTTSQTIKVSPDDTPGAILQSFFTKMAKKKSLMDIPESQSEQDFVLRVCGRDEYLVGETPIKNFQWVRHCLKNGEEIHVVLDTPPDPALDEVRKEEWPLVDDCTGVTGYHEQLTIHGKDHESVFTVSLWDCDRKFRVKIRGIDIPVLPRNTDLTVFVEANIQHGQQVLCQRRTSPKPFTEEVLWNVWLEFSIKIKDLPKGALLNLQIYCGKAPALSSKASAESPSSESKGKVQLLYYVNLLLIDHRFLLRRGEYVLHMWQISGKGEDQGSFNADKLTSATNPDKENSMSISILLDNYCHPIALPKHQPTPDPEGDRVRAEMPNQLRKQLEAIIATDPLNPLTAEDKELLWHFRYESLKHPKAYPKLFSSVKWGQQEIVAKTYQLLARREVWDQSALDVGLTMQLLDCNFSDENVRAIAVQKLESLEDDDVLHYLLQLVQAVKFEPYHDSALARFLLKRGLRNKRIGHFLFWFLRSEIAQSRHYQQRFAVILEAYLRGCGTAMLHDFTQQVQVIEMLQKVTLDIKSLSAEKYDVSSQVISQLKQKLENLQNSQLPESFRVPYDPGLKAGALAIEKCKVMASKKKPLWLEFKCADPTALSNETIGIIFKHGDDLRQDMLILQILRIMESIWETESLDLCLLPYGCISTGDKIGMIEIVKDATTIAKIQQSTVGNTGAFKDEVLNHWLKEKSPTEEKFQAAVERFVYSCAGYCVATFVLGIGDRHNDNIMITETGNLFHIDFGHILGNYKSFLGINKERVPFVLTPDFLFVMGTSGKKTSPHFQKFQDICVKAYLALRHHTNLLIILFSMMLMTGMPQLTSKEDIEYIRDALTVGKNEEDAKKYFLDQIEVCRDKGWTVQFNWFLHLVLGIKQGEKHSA
Sequence of PI3Kδ (p110δ/p85α) Recombinant Human Protein (O00329 whole entry): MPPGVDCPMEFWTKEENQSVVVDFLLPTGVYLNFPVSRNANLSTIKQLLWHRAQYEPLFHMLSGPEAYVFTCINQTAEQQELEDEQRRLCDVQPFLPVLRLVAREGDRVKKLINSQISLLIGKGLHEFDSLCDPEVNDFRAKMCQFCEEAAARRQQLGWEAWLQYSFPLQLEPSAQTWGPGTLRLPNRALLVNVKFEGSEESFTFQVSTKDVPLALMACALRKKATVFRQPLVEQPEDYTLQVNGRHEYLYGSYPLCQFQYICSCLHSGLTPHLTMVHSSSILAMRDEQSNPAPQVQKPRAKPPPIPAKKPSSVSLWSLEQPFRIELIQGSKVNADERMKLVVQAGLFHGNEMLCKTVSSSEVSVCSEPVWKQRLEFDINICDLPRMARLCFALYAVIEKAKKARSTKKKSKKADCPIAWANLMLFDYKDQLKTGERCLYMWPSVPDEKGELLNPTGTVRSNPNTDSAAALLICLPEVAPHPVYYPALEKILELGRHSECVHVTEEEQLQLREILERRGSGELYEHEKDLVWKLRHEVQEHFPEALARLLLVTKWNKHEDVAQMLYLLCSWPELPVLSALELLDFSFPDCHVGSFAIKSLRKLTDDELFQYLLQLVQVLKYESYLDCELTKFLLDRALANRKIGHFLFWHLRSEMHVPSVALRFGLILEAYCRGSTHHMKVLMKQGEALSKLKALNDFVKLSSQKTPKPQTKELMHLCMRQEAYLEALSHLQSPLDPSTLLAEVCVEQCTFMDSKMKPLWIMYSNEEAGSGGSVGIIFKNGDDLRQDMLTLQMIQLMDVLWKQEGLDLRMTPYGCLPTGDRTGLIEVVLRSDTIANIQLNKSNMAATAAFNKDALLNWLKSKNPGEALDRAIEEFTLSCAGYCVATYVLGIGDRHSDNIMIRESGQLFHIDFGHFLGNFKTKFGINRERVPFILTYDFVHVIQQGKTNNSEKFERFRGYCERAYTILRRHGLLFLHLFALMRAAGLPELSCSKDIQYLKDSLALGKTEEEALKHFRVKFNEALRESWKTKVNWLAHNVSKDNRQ
Sequence of PI3Kδ (p110δ/p85α) Recombinant Human Protein (P27986 whole entry partner): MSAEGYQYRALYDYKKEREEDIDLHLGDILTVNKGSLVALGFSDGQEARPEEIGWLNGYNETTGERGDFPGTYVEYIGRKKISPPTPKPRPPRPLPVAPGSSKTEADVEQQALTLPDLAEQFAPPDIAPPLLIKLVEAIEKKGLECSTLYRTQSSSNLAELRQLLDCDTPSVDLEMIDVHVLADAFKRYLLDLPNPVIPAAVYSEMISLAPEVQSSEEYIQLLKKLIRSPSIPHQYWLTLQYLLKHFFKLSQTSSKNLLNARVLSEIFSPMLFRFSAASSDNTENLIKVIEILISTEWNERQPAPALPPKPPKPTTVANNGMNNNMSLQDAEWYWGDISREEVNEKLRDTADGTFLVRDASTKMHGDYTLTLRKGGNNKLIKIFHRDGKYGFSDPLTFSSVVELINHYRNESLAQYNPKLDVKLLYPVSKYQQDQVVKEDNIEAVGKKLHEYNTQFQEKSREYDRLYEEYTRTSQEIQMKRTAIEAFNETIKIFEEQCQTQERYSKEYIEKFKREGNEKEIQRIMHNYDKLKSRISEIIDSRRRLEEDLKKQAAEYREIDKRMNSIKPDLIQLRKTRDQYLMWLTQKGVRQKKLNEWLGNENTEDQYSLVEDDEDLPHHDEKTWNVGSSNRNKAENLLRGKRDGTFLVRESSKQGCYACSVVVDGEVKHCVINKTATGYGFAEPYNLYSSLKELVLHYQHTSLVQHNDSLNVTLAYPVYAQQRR

Take `Cc1ccc(S(=O)(=O)N(C)[C@H]2CN(C)C[C@@H]2O)cc1-c1cnc2c(N)nc(C(F)(F)F)cn12` [Example 299, 3-(8-amino-6-(trifluoromethyl)imidazo[1,2-a]pyrazin-3-yl)-N-((3S,4S)-4-hydroxy-1-methylpyrrolidin-3-yl)-N,4-dimethylbenzenesulfonamide]: the concentration for half-maximal inhibition (IC50) in test [1] (Homo sapiens) is 100 to 500 nM; in test [2] it was less than 100 nM; in test [3], 100 to 500 nM.

For `Cc1ccc(S(=O)(=O)N(CCC#N)C2CCCCC2)cc1-c1cnc2c(N)nc(C(F)(F)F)cn12` [Example 301, 3-(8-amino-6-(trifluoromethyl)imidazo[1,2-a]pyrazin-3-yl)-N-(2-cyanoethyl)-N-cyclohexyl-4-methylbenzenesulfonamide], the IC50 was 100 to 500 nM in test [1] (Homo sapiens), less than 100 nM in test [2] and 500 to 2000 nM in test [3].

As for `Cc1ccc(S(=O)(=O)N2CC[C@H](N)C2)cc1-c1cnc2c(N)nc(C(F)(F)F)cn12` [Example 305, (S)-3-(5-((3-aminopyrrolidin-1-yl)sulfonyl)-2-methylphenyl)-6-(trifluoromethyl)imidazo[1,2-a]pyrazin-8-amine bis(trifluoroacetate)], the half-inhibitory concentration (IC50) in test [1] (Homo sapiens) is greater than 1000 nM; in test [2], less than 100 nM; in test [3] it was 100 to 500 nM.

Take `Cc1ccc(S(=O)(=O)N2C[C@@H](C)C[C@@H](N)C2)cc1-c1cnc2c(N)nc(C(F)(F)F)cn12` [Example 306, 3-(5-(((3R,5S)-3-amino-5-methylpiperidin-1-yl)sulfonyl)-2-methylphenyl)-6-(trifluoromethyl)imidazo[1,2-a]pyrazin-8-amine]: the half-inhibitory concentration (IC50) in test [1] (Homo sapiens), in test [2] and in test [3] was less than 100 nM each time.

As to `Cc1ccc(S(=O)(=O)N2C[C@H](N)C[C@H](C(F)(F)F)C2)cc1-c1cnc2c(N)nc(C(F)(F)F)cn12` [Example 307, 3-(5-(((3R,5S)-3-amino-5-(trifluoromethyl)piperidin-1-yl)sulfonyl)-2-methylphenyl)-6-(trifluoromethyl)imidazo[1,2-a]pyrazin-8-amine], the values for the concentration for half-maximal inhibition (IC50) in test [1] (Homo sapiens), in test [2] and in test [3] were 100 to 500 nM, less than 100 nM and less than 100 nM, respectively.

`Cc1ccc(S(=O)(=O)N2CC[C@@H](F)[C@@H](N)C2)cc1-c1cnc2c(N)nc(C(F)(F)F)cn12` [Example 308, 3-(5-(((3S,4R)-3-amino-4-fluoropiperidin-1-yl)sulfonyl)-2-methylphenyl)-6-(trifluoromethyl)imidazo[1,2-a]pyrazin-8-amine]: the 50% inhibitory concentration (IC50) in test [1] (Homo sapiens), in test [2] and in test [3] was less than 100 nM throughout.

In the case of `Cc1ccc(S(=O)(=O)N2CCC[C@@H](N(C)C)C2)cc1-c1cnc2c(N)nc(C(F)(F)F)cn12` [Example 309, (R)-3-(5-((3-(dimethylamino)piperidin-1-yl)sulfonyl)-2-methylphenyl)-6-(trifluoromethyl)imidazo[1,2-a]pyrazin-8-amine], the IC50 is 100 to 500 nM in test [1] (Homo sapiens), less than 100 nM in test [2] and 500 to 2000 nM in test [3].

Regarding `Cc1ccc(S(=O)(=O)N[C@H]2CC[C@H](O)CC2)cc1-c1cnc2c(N)nc(C(F)(F)F)cn12` [Example 310, 3-(8-Amino-6-(trifluoromethyl)imidazo[1,2-a]pyrazin-3-yl)-N-(trans-4-hydroxycyclohexyl)-4-methylbenzenesulfonamide], the concentration for half-maximal inhibition (IC50) was less than 100 nM in test [1] (Homo sapiens), less than 100 nM in test [2] and 100 to 500 nM in test [3].

Take `Cc1ccc(S(=O)(=O)N[C@H]2CC[C@H](CO)OC2)cc1-c1cnc2c(N)nc(C(F)(F)F)cn12` [Example 311]: the IC50 was less than 100 nM in test [1], less than 100 nM in test [2] and 100 to 500 nM in test [3].

As for `Cc1ccc(S(=O)(=O)N2CCCC(C)(CO)C2)cc1-c1cnc2c(N)nc(C(F)(F)F)cn12` (stereo not drawn) [Example 312, (1-((3-(8-Amino-6-(trifluoromethyl)imidazo[1,2-a]pyrazin-3-yl)-4-methylphenyl)sulfonyl)-3-methylpiperidin-3-yl)methanol], the figures for the IC50 in test [1] (Homo sapiens), in test [2] and in test [3] were 100 to 500 nM, less than 100 nM and 100 to 500 nM, respectively.

With `Cc1ccc(S(=O)(=O)N2CCCC(C#N)C2)cc1-c1cnc2c(N)nc(C(F)(F)F)cn12` (stereo not drawn) [Example 314, 1-((3-(8-Amino-6-(trifluoromethyl)imidazo[1,2-a]pyrazin-3-yl)-4-methylphenyl)sulfonyl)piperidine-3-carbonitrile], the IC50 was 100 to 500 nM in test [1] (Homo sapiens), less than 100 nM in test [2] and 100 to 500 nM in test [3].

In the case of `Cc1ccc(S(=O)(=O)NCC2(F)COC2)cc1-c1cnc2c(N)nc(C(F)(F)F)nn12` [Example 315, 3-(4-Amino-2-(trifluoromethyl)imidazo[1,2-f][1,2,4]triazin-7-yl)-N-((3-fluorooxetan-3-yl)methyl)-4-methylbenzenesulfonamide trifluoroacetate salt], the 50% inhibitory concentration (IC50) in test [1], in test [2] and in test [3] was less than 100 nM throughout.

Regarding `Cc1ccc(S(=O)(=O)NCC2(O)COC2)cc1-c1cnc2c(N)nc(C(F)(F)F)nn12` [Example 316, 3-(4-Amino-2-(trifluoromethyl)imidazo[1,2-f][1,2,4]triazin-7-yl)-N-((3-hydroxyoxetan-3-yl)methyl)-4-methylbenzenesulfonamide trifluoroacetate salt], the half-inhibitory concentration (IC50) in test [1] is less than 100 nM; in test [2] it was less than 100 nM; in test [3] it was 100 to 500 nM.

As to `Cc1ccc(S(=O)(=O)NCC(C)(C)O)cc1-c1cnc2c(N)nc(C(F)(F)F)nn12` [Example 317, 3-(4-Amino-2-(trifluoromethyl)imidazo[1,2-f][1,2,4]triazin-7-yl)-N-(2-hydroxy-2-methylpropyl)-4-methylbenzenesulfonamide trifluoroacetate salt], the IC50 in test [1] is less than 100 nM; in test [2], less than 100 nM; in test [3] it was 100 to 500 nM.

Take `Cc1ccc(S(=O)(=O)NCC2(C)COC2)cc1-c1cnc2c(N)nc(C(F)(F)F)nn12` [Example 318, 3-(4-Amino-2-(trifluoromethyl)imidazo[1,2-f][1,2,4]triazin-7-yl)-4-methyl-N-((3-methyloxetan-3-yl)methyl)benzenesulfonamide trifluoroacetate salt]: the IC50 in test [1] was less than 100 nM; in test [2], less than 100 nM; in test [3], 100 to 500 nM.

On to `Cc1ccc(S(=O)(=O)NC23CC(CO)(C2)C3)cc1-c1cnc2c(N)nc(C(F)(F)F)nn12` [Example 319, 3-(4-Amino-2-(trifluoromethyl)imidazo[1,2-f][1,2,4]triazin-7-yl)-N-(3-(hydroxymethyl)bicyclo[1.1.1]pentan-1-yl)-4-methylbenzenesulfonamide], for which the IC50 in test [1] was less than 100 nM; in test [2] it was less than 100 nM; in test [3], 100 to 500 nM.

As for `Cc1ccc(S(=O)(=O)NC2CN(C)C2)cc1-c1cnc2c(N)nc(C(F)(F)F)nn12` [Example 322, 3-(4-Amino-2-(trifluoromethyl)imidazo[1,2-f][1,2,4]triazin-7-yl)-4-methyl-N-(1-methylazetidin-3-yl)benzenesulfonamide], the results for the IC50 in test [1], in test [2] and in test [3] were less than 100 nM, less than 100 nM and 100 to 500 nM, respectively.

`Cc1ccc(S(=O)(=O)N[C@H]2C[C@H](CO)C2)cc1-c1cnc2c(N)nc(C(F)(F)F)nn12` [Example 323, 3-(4-Amino-2-(trifluoromethyl)imidazo[1,2-f][1,2,4]triazin-7-yl)-N-((1r,3r)-3-(hydroxymethyl)cyclobutyl)-4-methylbenzenesulfonamide trifluoroacetate salt]: the results for the IC50 in test [1], in test [2] and in test [3] were less than 100 nM, less than 100 nM and 100 to 500 nM, respectively.

With `Cc1ccc(S(=O)(=O)NC23CC(Cn4ccnc4)(C2)C3)cc1-c1cnc2c(N)nc(C(F)(F)F)nn12` [Example 324, N-(3-((1H-Imidazol-1-yl)methyl)bicyclo[1.1.1]pentan-1-yl)-3-(4-amino-2-(trifluoromethyl)imidazo[1,2-f][1,2,4]triazin-7-yl)-4-methylbenzenesulfonamide trifluoroacetate salt], the values for the IC50 in test [1], in test [2] and in test [3] were less than 100 nM, less than 100 nM and 100 to 500 nM, respectively.

Take `CC(=O)N1CC(O)(CNS(=O)(=O)c2ccc(C)c(-c3cnc4c(N)nc(C(F)(F)F)nn34)c2)C1` [Example 325, N-((l-Acetyl-3-hydroxyazetidin-3-yl)methyl)-3-(4-amino-2-(trifluoromethyl)imidazo[1,2-f][1,2,4]triazin-7-yl)-4-methylbenzenesulfonamide trifluoroacetate salt]: the IC50 in test [1] is 100 to 500 nM; in test [2], less than 100 nM; in test [3] it was less than 100 nM.

On to `Cc1ccc(S(=O)(=O)N[C@H]2CC[C@](C)(O)CC2)cc1-c1cnc2c(N)nc(C(F)(F)F)nn12` [Example 327, 3-(4-Amino-2-(trifluoromethyl)imidazo[1,2-f][1,2,4]triazin-7-yl)-N-((1r,4r)-4-hydroxy-4-methylcyclohexyl)-4-methylbenzenesulfonamide trifluoroacetate salt], for which the values for the concentration for half-maximal inhibition (IC50) in test [1], in test [2] and in test [3] were 100 to 500 nM, less than 100 nM and 100 to 500 nM, respectively.

The values are drawn from patent US10479795B2 (Incyte Corporation, priority 2016, dated 2019).
